# Source: patent US8653027B2, “Method of treatment of type-1 diabetes with humanin analogues” (The Regents of the University of California, priority 2007, dated 2014)
# “Also recorded” adds a separate entry of the source. Like-named read-outs stand apart in the source and are kept apart here.
# Columns and labels:
# IGFBP-3 = IGFBP-3 (Homo sapiens, UniProt P17936); assay: IGFBP-3 binding
# NIT-1 insulinoma cells = assay: Serum starvation-induced apoptosis of NIT-1 cells, histone-associated DNA ELISA; format: cell-based, Mouse; details: NIT-1 cells serum starved 24 hours, humanin 1 to 10000 nM
# Experimental: Secondary to the pro-survival effect of humanin observed in neuronal cells, we hypothesized that humanin could be a survival factor for neuroendocrine beta cells. Mouse NIT-1 insulinoma cells were serum starved for 24 hours as control, and compared to cultures co-incubated with increasing doses of humanin ranging from 1 to 10000 nM.
# Conditions were as follows: NIT-1 cells were purchased from ATCC and maintained in F-12 Ham's medium (F12-K) supplemented with 10% FBS (fetal bovine serum), 10% L-glutamine, Penicillin (100 U/ml) and Streptomycin (100 μg/ml), in 25 cm^2 tissue culture flasks (Greiner, Frickenhausen, Germany). NIT-1 cells were maintained at 37 C in a 5% CO2/95% air mixture and were passaged twice weekly by trypsination (Invitrogen life technologies, Karlsruhe, Germany). For the experiment, NIT-1 cells were seeded in 96-well plates at a density of 0.128×10^5 cells per well. After about 24 hours, medium was changed to FCS-free medium.
# Apoptosis was quantified by a specific histone-associated DNA ELISA.
# STAT3 = STAT3 phosphorylation in NIT-1 cells by immunoblotting; format: cell-based, Mouse; details: 100 nM HN, serum free media
# Experimental: (§1) To investigate the mechanism of Humanin-induced beta cell survival, we treated NIT-1 cells with 100 nM HN in serum free media. Cell lysates were harvested and phosphorylated ERK1/2 and STAT3 were assessed by immunoblotting.
# (§2) Phosphorylation of ERK (activation) occurred 15 minutes after adding HN. Phosphorylation of STAT3 (activation) was a later event, 4 hours after addition of HN (FIG. 2).
# NIT-1 cells = assay: Caspase 3/7 fluorometric assay (ApoONE) of cytokine-induced apoptosis in NIT-1 cells; format: cell-based, Mouse
# Experimental: Apoptosis is the main form of pancreatic beta cell death in animal models of type 1 diabetes mellitus. […] In this study, we used a caspase 3/7 specific fluorometric assay (ApoONE, Promega) to measure the degree of apoptosis induction by cytokines in NIT-1 cells.
# Cells were cultured as described above. For the experiment, NIT-1 cells were seeded in 96-well plates at a density of 0.128×10^5 cells per well. After about 24 hours, medium was changed to FCS-free medium and the cells were exposed to TNF-α (5 ng/mL) or were kept untreated as controls. As expected, TNF-α induced apoptosis in NIT-1 cells at 48 hours.
# TNF-α increased apoptosis approximately 40% compared to serum-deprived cells.
# NOD mice [1] = format: in vivo; details: for glucose tolerance (response to glucose challenge): NOD mice, 0.7 mg/kg/d IP for 6 weeks, fasted overnight, vs saline
# Experimental: As proof of principle, we examined whether a 6-week course of daily IP injected humanin (0.7 mg/kg/d) to euglycemic 9-week-old NOD mice (Taconic) could improve glucose tolerance as compared to saline-injected control mice (n=12/group). […] At the conclusion of the treatment, mice were fasted overnight and divided into groups that were subjected to IP insulin and glucose tolerance testing (n=6/group). […] We additionally harvested serum, pancreata, and various other organs from these mice for histological studies and analysis of serum humanin, IGFBP-3, and other IGF-related peptides.
# ERK1/2 = ERK1/2 phosphorylation in NIT-1 cells by immunoblotting; format: cell-based, Mouse; details: 100 nM HN, serum free media
# Experimental: as §1, §2
# NOD mice [2] = assay: Insulitis scoring of pancreatic sections from NOD mice; format: in vivo, mouse; details: humanin-treated NOD mice vs vehicle-treated control
# Excerpt: To test whether administration of humanin regulates the extent of lymphocyte infiltration into pancreatic islets, fixed and embedded pancreatic tissues were examined. Pancreata from humanin-treated NOD mice were formalin fixed, stained with hematoxylin/eosin, and assessed in a blinded fashion to determine the degree of lymphocyte infiltration. Results were compared to tissues from saline-injected control mice. Three or four randomly selected and nonadjacent sections from each pancreas were scored independently by two blind observers and evaluated for mononuclear cell infiltration. Severity of infiltration was classified based on the degree of lymphocytic infiltration as follows: G0—normal (no infiltration); G1—peri-insulitis (mononuclear cells surrounding islets and ducts but no infiltration of the islet architecture); G2—moderate insulitis (mononuclear cells infiltrating less than 50% of the islet architecture); and G3—severe insulitis (more than 50% of the islet tissue infiltrated by lymphocytes, accompanied by a reduction in insulin staining). See Pastorale et al. (2002) Exp Biol Med (Maywood) 227:282-89.
# NOD mice [3] = assay: Onset of diabetes in NOD mice over 20-week treatment; format: in vivo, mouse; details: female NOD mice, 0.7 mg/kg/d IP daily from 5 weeks of age, vs saline, 0.7 mg/kg/day
# Experimental: Four-week-old female NOD mice were treated with humanin. Before treatment, mice were tested two to three times per week for nonfasting blood glucose levels. Mice with blood glucose levels higher than 300 mg/dL on three consecutive measurements were considered diabetic. Beginning at 5 weeks of age, two groups of NOD mice (n=25 each) were administered (0.7 mg/kg/d) synthetic humanin by IP injection daily (Bachem). NOD mice injected with the same volume of saline served as negative controls.
# NIT cells = assay: Survival and STAT-3/ERK activation in NIT cells, potency compared to humanin; format: cell-based
# NONcNZO10/LtJ mice = assay: IP glucose tolerance test in NONcNZO10/LtJ mice (obesity-induced type 2 diabetes model); format: in vivo, mouse; details: 25 μg IP twice a day for 14 days
# Experimental: NONcNZO10/LtJ mice are a model for obesity-induced type 2 diabetes. NONcNZO10/LtJ mice were injected IP with 25 μg F6A-HNG twice a day for 14 days. Mice were subjected to 6 hour fast followed by an IP GTT on D15. Baseline glucose measurement was taken and the mice were injected IP with 0.5 mg/g glucose. Glucose was sampled at 0 and 90, 120 min.
# normal (wild-type) MEFs = assay: Apoptosis ELISA in normal (wild-type) mouse embryonic fibroblasts; format: cell-based; details: 100 nM peptide, 24 hours
# Experimental: (§3) Mouse embryonic fibroblasts (MEFs) derived from normal (wild-type) and IGFBP3 deficient mice were used to test the effects of humanin and its analogues on survival. Apoptosis was measured after 24 hours with 100 nM of each peptide by ELISA. […] The increased potency seems to result from the lack of IGFBP-3 binding, because there is no additional advantage when IGFBP-3 is not present. Thus, F6A-HNG is distinct from previously described humanin derivatives.
# IGFBP-3 deficient MEFs = assay: Apoptosis ELISA in IGFBP-3 deficient mouse embryonic fibroblasts; format: cell-based; details: 100 nM peptide, 24 hours
# Experimental: as §3
# Chain of IGFBP-3 (P17936 28-291, species assumed): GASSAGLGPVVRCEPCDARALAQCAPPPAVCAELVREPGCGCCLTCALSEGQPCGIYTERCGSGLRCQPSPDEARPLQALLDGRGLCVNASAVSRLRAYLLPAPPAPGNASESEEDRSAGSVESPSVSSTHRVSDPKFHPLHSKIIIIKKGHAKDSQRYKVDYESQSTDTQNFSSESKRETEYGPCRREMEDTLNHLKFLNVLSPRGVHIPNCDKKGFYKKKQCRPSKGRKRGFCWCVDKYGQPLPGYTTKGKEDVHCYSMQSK
substance,measurement,setting,value
"Humanin: 24 amino acid peptide, SEQ ID NO:1 MAPRGFSCLLLLTSEIDLPVKRRA",IGFBP-3 binding,IGFBP-3,binds IGFBP-3
same,protection from serum-starvation induced apoptosis,NIT-1 insulinoma cells,potently protected beta cells from serum-starvation induced apoptosis in a dose dependent manner
same,protection from serum-starvation induced apoptosis,NIT-1 insulinoma cells; listed as humanin,reduced the level of apoptosis
same,STAT3 activation,STAT3,activates ERK and STAT3
same,time of phosphorylation of STAT3 (activation) after addition of HN,STAT3,4 h
same,protection from serum starvation induced apoptosis (caspase 3/7 assay),"NIT-1 cells; FCS-free medium, humanin 10 to 1000 nM",protects beta cells from cytokine-induced apoptosis and serum starvation induced apoptosis in a dose-dependent manner
same,protection from TNF-α induced apoptosis,"NIT-1 cells; TNF-α 5 ng/mL, 48 hours, humanin 10 to 1000 nM, caspase 3/7 assay",protected beta cells from TNF-α induced apoptosis in a dose dependent manner
same,glucose tolerance (response to glucose challenge),NOD mice [1],improves glucose tolerance
same,glucose tolerance (response to glucose challenge),NOD mice [1]; listed as humanin,non-diabetic response to glucose challenge
same,tolerability of daily IP injections,"NOD mice [1]; mouse, in vivo, ip, 0.7 mg/kg/day",tolerated well
same,ERK activation,ERK1/2,activates ERK
same,time of phosphorylation of ERK (activation) after adding HN,ERK1/2,15 min
same,total number of islets infiltrated by lymphocytes,NOD mice [2],significantly decreased
same,severity of lymphocyte infiltration (insulitis),NOD mice [2]; grades G0-G3,significantly decreased; also recorded: decreased insulitis severity
same,onset of diabetes,NOD mice [3],delays onset of diabetes
same,onset of diabetes,NOD mice [3]; listed as humanin,significantly delayed the onset of diabetes
"F6AK21A-HNG: humanin analogue, SEQ ID NO:17 MAPRGASCLLLLTGEIDLPVARRA (synthetic humanin (HN) analogue F6AK21A-HNG)","potency in promoting survival and activating STAT-3 and ERK, compared to humanin",NIT cells,even greater potency
"Z-HN: humanin analogue, SEQ ID NO:18 MAKRGLNCLPHQVSEIDLSVQKRI (synthetic humanin (HN) analogue Z-HN)","potency in promoting survival and activating STAT-3 and ERK, compared to humanin",NIT cells,two-fold greater potency than humanin
"F6A-HNG: humanin analogue, SEQ ID NO:16 MAPRGASCLLLLTGEIDLPVKRRA (synthetic humanin (HN) analogue F6A-HNG)",glucose levels at 90 and 120 min,NONcNZO10/LtJ mice; IP GTT on D15,significantly lower
same,glucose tolerance,"NONcNZO10/LtJ mice; IP GTT on D15 after 6 hour fast, 0.5 mg/g glucose",significantly better glucose tolerance
same,IGFBP-3 binding,IGFBP-3,does not bind IGFBP-3; also recorded: devoid of IGFBP-3 binding activity
same,potency on survival (apoptosis) in normal MEFs,normal (wild-type) MEFs,more potent
same,potency on survival (apoptosis) in IGFBP-3 deficient MEFs,IGFBP-3 deficient MEFs,equal potency
same,"potency in promoting survival and activating STAT-3 and ERK, compared to humanin",NIT cells,even greater potency
TNF-α [reference compound],increase of apoptosis compared to serum-deprived cells,"NIT-1 cells; TNF-α 5 ng/mL, 48 hours",approximately 40%
"HNG: humanin analogue, SEQ ID NO:2 MAPRGFSCLLLLTGEIDLPVKRRA (synthetic humanin (HN) analogue S14G-HN (HNG))",potency on survival (apoptosis) in IGFBP-3 deficient MEFs,IGFBP-3 deficient MEFs,equal potency
